Row | melting point [°C] | SMILES
1 | 131 to 133 | CCOC(=O)c1cc(=O)cc(-c2ccc(OC)cc2)o1
2 | 258 to 260 | O=C(O)C1c2ccccc2COc2ccc(C(F)(F)F)cc21 (centres undefined)
3 | 66 to 68 | COc1ccc2ncc(CO)c(OC(C)C)c2c1
4 | 160 to 161 | CCOC(=O)c1cc(NCc2ccccc2)c(Nc2ccccc2)c(S(N)(=O)=O)c1
5 | 179 to 180 | Cc1cc(Nc2ccccc2)nc(N)n1
6 | 84 to 88 | COC(=O)C1=C(C)NC(C)=C(C(=O)OCCN2CCN(C(c3ccccc3)c3ccccc3)CC2)C1c1cccc(Cl)c1Cl (centres undefined)
7 | 150 to 151 | CCc1cc(C(=O)c2ccccc2Cl)c(-n2c(C)nnc2CNC(=O)/C=C/c2ccccc2)s1
8 | 166 to 168 | CCn1nc(-c2nc(C#N)c(NCc3ccc(OC)cc3)nc2-c2ccccc2)ccc1=O
9 | 128 to 130 | O=C(O)Cc1cccc(OCc2ccc3ccccc3n2)c1
10 | 295 to 296 | O=C(O)c1ccc2c(c1)S(=O)c1ccccc1C2=O (centres undefined)
11 | 86 to 86.5 | Cc1cc(C#N)ccc1-c1cccc(C=O)c1
12 | 208 | CC(C)(C)c1ccc(C(=O)N[C@H]2CC[C@H](CCN3CCC(c4cccc5c4CCO5)CC3)CC2)cc1
13 | 96 to 98 | c1ccc(CN2CCN(Cc3ccccc3)C(CCc3ccncc3)C2)cc1 (centres undefined)
14 | 201 to 204 | CCOc1ccc(-n2c(-c3ccncc3)nc(SC)c(C#N)c2=O)cc1
15 | 168 to 170 | O=C(CCc1ccccc1)Nc1cc(-c2ccccc2)[nH]n1
16 | 190 to 193 | Cc1cccc2ncc(C(=O)NC34CC5CC(CC(C5)C3)C4)c(=O)n12
17 | 230 to 231 | Cc1c(-c2ccc(OCC3CC3)cc2)nc2n(Cc3c(F)cccc3F)cc(Br)c(=O)n12
18 | 209 to 218 | O=C(O)c1ccc(F)cc1Sc1ccc(F)cc1
19 | 194 to 196 | O=C(O)C1Cc2cc3c(-c4ccccc4F)noc3cc2O1 (centres undefined)
20 | 104 to 105 | O=[N+]([O-])c1cc(F)c(N2CCSCC2)c(F)c1
21 | 158 to 160 | Cc1cc(SC2CC(=O)N(c3ccccc3)C2=O)cc(C(C)(C)C)c1O (centres undefined)
22 | 129 to 132 | CCS(=O)(=O)NC(=O)c1cccc(N)c1
23 | 126 to 127 | OC(Cn1cncn1)(c1ccc(F)cc1)C(F)(F)C(F)(F)C(F)(F)F (centres undefined)
24 | 193 to 195 | O=C(O)c1cc2cc(CCNS(=O)(=O)c3ccc(Cl)cc3)ccc2o1
25 | 198 to 203 | Cc1ccccc1C(=O)Nc1ccc(C(=O)N2Cc3ccccc3Cc3ccccc32)cc1
26 | 254 to 256 | Nc1cnc(-c2ccc(Br)cc2)c(Cl)n1

Row | melting point [°C] | SMILES
27 | 248 to 250 | CC(C)(C)C(=O)c1oc(N)nc1C(C)(C)C
28 | 228 to 230 | OCc1nccc2c1[nH]c1ccccc12
29 | 226 to 227 | O=C(N[C@@H](Cc1ccccc1)C(=O)NCCCNC(=O)[C@H](Cc1ccccc1)NC(=O)OCc1ccccc1)OCc1ccccc1
30 | 51 to 52 | C=CCOc1cccc(C(C)=O)c1O
31 | 173 to 174 | CCOC1CC2(C)C(CCC3C4CC(O)C(Br)C4(C)CC(N(C)C)C32)CC1O (centres undefined)
32 | 205 to 206 | CC(C)Oc1nc(SCc2cccc(C(F)(F)F)c2)nc2[nH]c(=O)cnc12
33 | 206 | O=C(O)c1cnc2ccc(-c3ccc(Cl)cc3)cn12
34 | 176 to 178 | Cc1c(NC(=O)c2ccc(-c3ccc(F)cc3)cc2)ccc2cc(CN3CCOCC3)cnc12
35 | 219 to 220 | Cc1cc(C(N)=O)ncc1C(c1c(F)ccc(F)c1F)S(=O)(=O)c1ccc(OC(F)(F)F)cc1 (centres undefined)
36 | 145 to 146 | CC(C)NS(=O)(=O)Oc1ccc(F)cc1
37 | 106 to 112 | CCNC(=S)NC1CCCc2sccc21 (centres undefined)
38 | > 300 | CC(C)N[C@H](C(=O)O)C(C)C
39 | 55 to 56 | COc1cc(C(C)=O)ccc1OC1CCCC1
40 | 216 | O=c1[nH]c2c(n3ccnc13)C(NS(=O)(=O)c1ccccc1)c1ccccc1-2 (centres undefined)
41 | 222 to 224 | CC12CC3(C)CC(c4ccc(O)cc4)(C1)CC(c1ccc(O)cc1)(C2)C3
42 | 219 to 221 | O=S(=O)(c1ccc(Cl)cc1)C(c1cc(F)ccc1F)c1cc(N2CCCS2(=O)=O)ncc1Cl (centres undefined)
43 | 83 to 84 | Cc1nn(-c2ccccn2)cc1COc1ccc(CO)cc1
44 | 114 to 115 | CCOc1ccccc1C(=O)c1oc2ccc(Cl)cc2c1N
45 | 172 | CCOC(=O)N(N)C(=O)c1cc(Cl)ccc1O
46 | 121 to 123 | Cc1nc2ccccc2n1-c1ccccn1
47 | 114 | CC(C)c1cc(Cl)nc(-c2ccc(C#N)cc2)n1
48 | 207 | COc1ccc(-c2ccc(N)nn2)cc1OC1CCCC1
49 | 166 to 168 | COc1cc2c(c3c1OC(C)(C)C3)C(c1ccn(CC(=O)NCC(N)=O)c(=O)c1)=NC(C)(C)C2
50 | 196 to 197 | Cc1nc(N2CCC(Cc3ccc(F)cc3)C2=O)sc1C(=O)NCc1ccc(F)cc1 (centres undefined)
51 | 77 to 78 | CCOC(=O)[C@H]1CCc2ccc(O)cc2O1
52 | 142 to 145 | COC(=O)c1cc(C#CC(C)(C)O)cnc1C1=NC(C)(C(C)C)C(=O)N1 (centres undefined)

Row | melting point [°C] | SMILES
53 | 137 to 138 | COC(Nc1ccccc1)(OC)c1ccnc(C(=O)c2ccc(Cl)cc2)c1
54 | 134 to 136 | OCc1cc(N2CCOCC2)c(F)cn1
55 | > 300 | COC(=O)c1c(OC)c(OC)cc2[nH]c(=O)c(=O)[nH]c12
56 | 174 to 175 | O=C(Nc1cc(C(=O)O)cc(-c2ccccc2)c1)OCc1cc2cc(-c3ccccc3)ccc2o1
57 | 167 to 169 | Cc1ccc(C2C(=O)CC(C)(C)CC2=O)c(C)c1
58 | 210 | Cc1nnc(-c2cccs2)c(=O)n1N
59 | 100 | CCCCNC(=O)[C@@H](C[C@H](O)[C@H](CC1CCCCC1)N=[N+]=[N-])C(C)C
60 | 186 to 189 | O=Cc1c2ccccc2c(C=O)c2c(Cl)cccc12
61 | 97 to 101 | COc1ccc(C(O)Cc2ccncc2)cc1OC1CCCC1 (centres undefined)
62 | 106 to 108 | COCn1cc(C(=O)c2ccccc2)c(-c2cccc(Cl)c2)n1
63 | 146 to 147 | c1ccc(CCc2n[nH]c(NCCCCOc3cccc(CN4CCCCC4)c3)n2)cc1
64 | 110 to 112 | C=CCNc1nc(Cl)nc2c1ncn2CC=C
65 | 210 to 211 | O=C(c1ccco1)c1cnn2c(-c3cccc(N4CCCC4=O)c3)ccnc12
66 | 285 to 287 | O=c1[nH]c2cnccc2c2nc(-c3ccccc3F)nn12
67 | 245 to 247 | CC(C)Oc1ccc(-c2ccc3c(c2)C=C(C(=O)Nc2ccc(CN(C)C4CCOCC4)cc2)CCS3(=O)=O)cc1
68 | 83 to 85 | CCNCCC1CCc2cc(OCc3ccc(-c4ccccc4)cc3)ccc2C1 (centres undefined)
69 | 138 to 139 | COc1cc(C(=O)N2CCC(N3CCC(Oc4ccc(F)c(F)c4)CC3)C2)ccc1N (centres undefined)
70 | 195 | OC1CSC(Oc2ccccc2-c2cccnc2)C(O)C1O (centres undefined)
71 | 178 to 180 | CCOC(=O)c1cn(CC)c2cc(C(=O)C=C(C)N(C)C)ccc2c1=O
72 | 49 to 50 | CCS(=O)(=O)N[C@H](C(=O)NCc1ccc(O)c(OC)c1)C(C)C
73 | 129 to 131 | CCC1CCc2nc3c(c(N)c2C1=O)c1ccccc1n3C (centres undefined)
74 | 114 to 116 | O=S1N=C(NCCCN(Cc2ccccc2)c2ccccn2)C(NCc2cccnc2)=N1 (centres undefined)
75 | 104 to 108 | O=C(O)C(CC(c1ccc(OCc2ccc3ccccc3n2)cc1)c1ccc(OCc2ccc3ccccc3n2)cc1)=NO
76 | 108 | CCOC(=O)N(CCN(C(=O)OCC)C1CCCCC1)C1CCCCC1
77 | 80 | Cc1cn(C2OC(C)(CO)C(O)C2F)c(=O)[nH]c1=O (centres undefined)
78 | 80 to 82 | CC(Oc1ccc(F)cc1)C1CN(c2ccccc2)CCN1 (centres undefined)

Row | melting point [°C] | SMILES
79 | 145 to 146 | CNC(=O)NN(CC(=O)OC)c1cccc(OC)c1
80 | 192 to 193 | O=C(O)c1cc(-c2ccc(OCc3ccccc3)cc2OCc2ccccc2)no1
81 | 78 to 81 | COc1ccccc1N1CCN(C(=O)CCCCN2CC=C(c3c[nH]c4cc(F)ccc34)CC2)CC1
82 | 164 to 168 | CC(O)(C(=O)O)c1ccc2c(c1)Cc1ccccc1-2 (centres undefined)
83 | 188 to 189 | CN1C(=O)C(c2ccccc2)Oc2cccc3nc4c(c1c23)CCCC4 (centres undefined)
84 | 130 to 131 | Cc1cc(N2CC=C(C(=O)OC(C)C)CC2)c2cccc(Br)c2n1
85 | 61 to 63 | CCOC(=O)c1ccc(F)cn1
86 | 105 to 107 | Cc1ccc(N2CCc3cc(Br)ccc32)c([N+](=O)[O-])c1
87 | 148 to 149 | CCc1[nH]n(C2CCCC2)c2nc(Cc3ccc(OC)c(OC)c3)nc(=O)c1-2
88 | 276 to 279 | CCOC(=O)c1cc(Cl)c2[nH]ncc2n1
89 | 60 | CCOC(=O)NC(=S)SCC
90 | 105 to 106 | CCOC(=O)C(C)(C)N1OCC(CSC)=C(c2ccccc2)C1=O
91 | 110 to 111 | O=Cc1nn(-c2ccc(Cl)cc2)nc1-c1ccccc1
92 | 156 to 157 | CCCOc1cccnc1C(O)c1ccc(N)cc1 (centres undefined)
93 | 172 to 175 | Nc1ccccc1C(=O)Nc1cccnc1Cl
94 | 125 to 127 | COc1ccc(N=Nc2cc(OC)cc(C(C)(C)C)c2O)cc1
95 | 194 to 195 | O=C1CCCN1c1cccc(-n2cnc3cc(Br)cnc32)c1
96 | 86 to 87 | CC(O)(c1ccccc1)c1cncs1 (centres undefined)
97 | 164 to 168 | COc1ccc(O)c(C2(NCC(C)=O)Sc3ccccc3N(C)C2=O)c1 (centres undefined)
98 | 210 to 215 | Cn1ncc(C(=O)N2CCCC2)c1C(=O)Nc1ccn2nc(-c3ccccc3)nc2c1
99 | 174 to 177 | CC1Cc2cccc(S(N)(=O)=O)c2O1 (centres undefined)
100 | 98 to 100 | O=C(Oc1ccc(Br)cc1)c1ccccc1
101 | 157 to 160 | CC(C)(C)OC(=O)N1CCC(c2nc(-c3ccncc3)c(-c3ccc(F)cc3)[nH]2)CC1

Row | SMILES | melting point [°C]
102 | O=C1Nc2cc(CN3CC=C(c4ccc(Cl)cc4)CC3)cnc2N2CCCCC12 (centres undefined) | 202
103 | CN1C(=O)CC[C@]2(C)c3ccc(-c4ccc([N+](=O)[O-])cc4C(F)(F)F)cc3CC[C@@H]12 | 128 to 130
104 | Clc1c(NC2=NCCO2)ccc2[nH]ncc12 | 223 to 225
